IC50 data for 19 compounds are collected here from patent publication US10023592B2, “Bromodomain inhibitors” (Celgene Quanticel Research, Inc., priority 2013, dated 2018).

The term pIC50 denotes −log10 of the IC50, conventionally taken in molar units. Low readings indicate a large IC50, high ones a small IC50.

Experiment [1] has as its system Raji, human Burkitts lymphoma cells. The experiment is described as follows: Cell-MTS proliferation assay, Raji. Type of experiment: cell-based. Conditions: 168 hr. Summed up:
(§1)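 Cells were seeded per 96-well at densities giving ~90% confluence by day 7 (Raji 15,000, HL-60 5,000, NCI-H460 3,000) and dosed 24 hr later with an 11-point dilution, 100 μM to 2.0 nM final. Seven-day MTS colorimetric read at OD490; IC50 from background-subtracted, DMSO-normalised values.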

In experiment [2] the target is BRD4(BD1) (Homo sapiens (Human), UniProt O60885). The experiment is described as follows: In vitro enzyme inhibition assay (BRD4 AlphaScreen). Type of experiment: binding. Summed up: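 AlphaScreen proximity readout, using streptavidin donor and Ni-chelate acceptor beads at 5 μg/mL final, monitors biotin-H4 tetraacetylated peptide interaction with purified His-tagged BRD4.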

The test system of experiment [3] is NCI-H460, human non-small cell lung cancer cells. The experiment is described as follows: Cell-MTS proliferation assay, NCI-H460. Type of experiment: cell-based. Conditions: 168 hr. Summed up:
as §1
Background: Formazan colour is commonly taken as a measure of viable cells.

For experiment [4], the system named is HL-60, human proleukemia cells. The experiment is described as follows: Cell-MTS proliferation assay, HL-60. Type of experiment: cell-based. Conditions: 168 hr. Summed up: as §1
[5] abbreviates: Homo sapiens, Cell-MTS proliferation, Raji cells.
The mark [6] stands for this setting: in vitro enzyme inhibition assay.
Setting [7] is: Homo sapiens, Cell-MTS proliferation, NCI-H460 cells.
The mark [8] stands for this setting: Homo sapiens, Cell-MTS proliferation, HL-60 cells.
Where [9] appears, read: Homo sapiens, Raji, Cell-MTS proliferation.
[10] abbreviates: Homo sapiens, NCI-H460, Cell-MTS proliferation.
The mark [11] stands for this setting: Homo sapiens, HL-60, Cell-MTS proliferation.
Where [12] appears, read: Homo sapiens, Raji, Cell-MTS, class symbols A/B/C.
The mark [13] stands for this setting: Homo sapiens, NCI-H460, Cell-MTS, class symbols A/B/C.
Setting [14] is: Homo sapiens, HL-60, Cell-MTS, class symbols A/B/C.

pIC50: −log10 of the molar value.

Regarding `CCS(=O)(=O)Nc1ccc(OC2CCOC2)c(-c2cc(C)c(=O)n(C)c2)c1` (stereo not shown) [Example 445, N-[3-(1,5-dimethyl-6-oxopyridin-3-yl)-4-(oxolan-3-yloxy)phenyl]ethanesulfonamide], the pIC50 was > 6.30 in experiment [1] (setting [5]), > 6.30 in experiment [2] (setting [6]), < 5.30 in experiment [3] (setting [7]) and > 6.30 in experiment [4] (setting [8]).
`Cc1cc(-c2cc(S(C)(=O)=O)ccc2NCC2CC2)cn(C)c1=O` [Example 462, 5-[2-(cyclopropylmethylamino)-5-methylsulfonylphenyl]-1,3-dimethylpyridin-2-one]: the pIC50 is > 6.30 in experiment [1] (setting [5]), > 6.30 in experiment [2] (setting [6]), < 5.30 in experiment [3] (setting [7]) and > 6.30 in experiment [4] (setting [8]).
`Cn1cc(-c2cc(CS(C)(=O)=O)ccc2OCC(F)(F)F)c2ccccc2c1=O` [Example 488, 2-methyl-4-[5-(methylsulfonylmethyl)-2-(2,2,2-trifluoroethoxy)phenyl]isoquinolin-1-one]: the pIC50 in experiment [1] (setting [5]) was > 6.30; in experiment [2] (setting [6]), > 6.30; in experiment [3] (setting [7]), < 5.30; in experiment [4] (setting [8]), > 6.30.
Regarding `Cc1cc(-c2cc(NS(C)(=O)=O)ccc2OC2CCOC2)cn(C)c1=O` (stereo not shown) [Example 444, N-[3-(1,5-dimethyl-6-oxopyridin-3-yl)-4-(oxolan-3-yloxy)phenyl] methanesulfonamide], the pIC50 in experiment [1] (setting [5]) is > 6.30; in experiment [2] (setting [6]), > 6.30; in experiment [3] (setting [7]), < 5.30; in experiment [4] (setting [8]) it was > 6.30.
Consider `CCS(=O)(=O)c1ccc(OCC2CC2)c(-c2cn(C)c(=O)c3ccccc23)n1` [Example 206, 4-[3-(cyclopropylmethoxy)-6-ethylsulfonylpyridin-2-yl]-2-methylisoquinolin-1-one], for which the pIC50 was > 6.30 in experiment [1] (setting [9]), > 6.30 in experiment [2] (setting [6]), < 5.30 in experiment [3] (setting [10]) and > 6.30 in experiment [4] (setting [11]).
For `Cn1cc(-c2cc(S(C)(=O)=O)ccc2OCC2CC2)n2cncc2c1=O` [Example 130, 5-[2-(cyclopropylmethoxy)-5-methylsulfonylphenyl]-7-methylimidazo[1,5-a]pyrazin-8-one], the pIC50 in experiment [1] (setting [12]) was 5.30 to 6.30; in experiment [2] (class symbols A/B/C) it was > 6.30; in experiment [3] (setting [13]), < 5.30; in experiment [4] (setting [14]), > 6.30.
For `COc1ccc(-c2cn(C)c(=O)c3cnccc23)cc1S(=O)(=O)NCc1ccccc1` [Example 54, N-benzyl-2-methoxy-5-(2-methyl-1-oxo-2,7-naphthyridin-4-yl) benzenesulfonamide], the pIC50 in experiment [1] (Cell-MTS, class symbols A/B/C) is < 5.30; in experiment [2] (class symbols A/B/C) it was < 5.30; in experiment [3] (Cell-MTS, class symbols A/B/C), < 5.30; in experiment [4] (Cell-MTS, class symbols A/B/C), 5.30 to 6.30.
Consider `Cn1cc(-c2nc(NS(C)(=O)=O)ncc2OCC2CC2)c2cc(F)ccc2c1=O` [Example 159, N-[5-(cyclopropylmethoxy)-4-(6-fluoro-2-methyl-1-oxoisoquinolin-4-yl)pyrimidin-2-yl]methanesulfonamide], for which the pIC50 in experiment [1] (setting [9]) is > 6.30; in experiment [2] (setting [6]) it was > 6.30; in experiment [3] (setting [10]), < 5.30; in experiment [4] (setting [11]), > 6.30.
For `Cc1cc(-c2cc(S(C)(=O)=O)ccc2OCC2CC2)cn(CC(C)C)c1=O` [Example 243, 5-[2-(cyclopropylmethoxy)-5-methylsulfonylphenyl]-3-methyl-1-(2-methylpropyl)pyridin-2-one], the negative-log IC50 (pIC50) in experiment [1] (setting [9]) was < 5.30; in experiment [2] (setting [6]), 5.30 to 6.30; in experiment [3] (setting [10]), < 5.30; in experiment [4] (setting [11]), 5.30 to 6.30.
Consider `Cn1cc(-c2ncc3c(=O)n(C)cc(-c4cc(S(C)(=O)=O)ccc4OCC4CC4)c3n2)cn1` [Example 224, 8-[2-(cyclopropylmethoxy)-5-methylsulfonylphenyl]-6-methyl-2-(1-methylpyrazol-4-yl)pyrido[4,3-d]pyrimidin-5-one], for which the negative logarithm of the IC50 (pIC50) was > 6.30 in experiment [1] (setting [9]), > 6.30 in experiment [2] (setting [6]), < 5.30 in experiment [3] (setting [10]) and > 6.30 in experiment [4] (setting [11]).
For `Cn1cc(-c2cc(S(C)(=O)=O)ccc2OCC2CC2)c2cc(C(N)=O)sc2c1=O` [Example 267, 4-[2-(cyclopropylmethoxy)-5-methylsulfonylphenyl]-6-methyl-7-oxothieno[2,3-c]pyridine-2-carboxamide], the pIC50 in experiment [1] (setting [9]) was 5.30 to 6.30; in experiment [2] (setting [6]) it was > 6.30; in experiment [3] (setting [10]), < 5.30; in experiment [4] (setting [11]), > 6.30.
`Cn1cc(-c2nc(NS(C)(=O)=O)ncc2OCC2CC2)c2ccc(F)cc2c1=O` [Example 158, N-[5-(cyclopropylmethoxy)-4-(7-fluoro-2-methyl-1-oxoisoquinolin-4-yl)pyrimidin-2-yl]methanesulfonamide]: the pIC50 was > 6.30 in experiment [1] (setting [9]), > 6.30 in experiment [2] (setting [6]), < 5.30 in experiment [3] (setting [10]) and > 6.30 in experiment [4] (setting [11]).
`Cc1cc(-c2cc(NS(C)(=O)=O)ccc2OC2CCOCC2)cn(C)c1=O` [Example 439, N-[3-(1,5-dimethyl-6-oxopyridin-3-yl)-4-(oxan-4-yloxy)phenyl] methanesulfonamide]: the pIC50 in experiment [1] (setting [5]) is > 6.30; in experiment [2] (setting [6]), > 6.30; in experiment [3] (setting [7]) it was < 5.30; in experiment [4] (setting [8]) it was > 6.30.
As to `Cn1cc(-c2cc(S(C)(=O)=O)ccc2OCC2CC2)cc(F)c1=O` [Example 119, 5-[2-(cyclopropylmethoxy)-5-methylsulfonylphenyl]-3-fluoro-1-methylpyridin-2-one], the pIC50 in experiment [1] (setting [12]) was 5.30 to 6.30; in experiment [2] (class symbols A/B/C), 5.30 to 6.30; in experiment [3] (setting [13]), < 5.30; in experiment [4] (setting [14]), 5.30 to 6.30.
Consider `Cn1cc(-c2cn(CS(C)(=O)=O)c(=O)cc2OCC2CC2)c2ccccc2c1=O` [Example 384, 4-[4-(cyclopropylmethoxy)-1-(methylsulfonylmethyl)-6-oxopyridin-3-yl]-2-methylisoquinolin-1-one], for which the pIC50 is 5.30 to 6.30 in experiment [1] (setting [5]), > 6.30 in experiment [2] (setting [6]), < 5.30 in experiment [3] (setting [7]) and > 6.30 in experiment [4] (setting [8]).
For `Cc1cc(-c2cc(CS(C)(=O)=O)ccc2Oc2ccc(F)cc2F)cn(C)c1=O` [Example 455, 5-[2-(2,4-difluorophenoxy)-5-(methylsulfonylmethyl)phenyl]-1,3-dimethylpyridin-2-one], the pIC50 in experiment [1] (setting [5]) was > 6.30; in experiment [2] (setting [6]), > 6.30; in experiment [3] (setting [7]) it was < 5.30; in experiment [4] (setting [8]), > 6.30.
As to `CCS(=O)(=O)c1ccc(NCC2CC2)c(-c2cn(C)c(=O)c3cc(F)ccc23)c1` [Example 195, 4-[2-(cyclopropylmethylamino)-5-ethylsulfonylphenyl]-7-fluoro-2-methylisoquinolin-1-one], the pIC50 in experiment [1] (setting [9]) was > 6.30; in experiment [2] (setting [6]) it was > 6.30; in experiment [3] (setting [10]), < 5.30; in experiment [4] (setting [11]), > 6.30.
In the case of `Cn1cc(-c2cc(S(C)(=O)=O)ccc2NCC2CC2)c2c(c1=O)CCCC2` [Example 223, 4-[2-(cyclopropylmethylamino)-5-methylsulfonylphenyl]-2-methyl-5,6,7,8-tetrahydroisoquinolin-1-one], the negative-log IC50 (pIC50) is 5.30 to 6.30 in experiment [1] (setting [9]), > 6.30 in experiment [2] (setting [6]), < 5.30 in experiment [3] (setting [10]) and > 6.30 in experiment [4] (setting [11]).
With `CC#CCOc1ccc(S(=O)(=O)CC)cc1-c1cn(C)c(=O)c2ccccc12` [Example 185, 4-(2-but-2-ynoxy-5-ethylsulfonylphenyl)-2-methylisoquinolin-1-one], the pIC50 is > 6.30 in experiment [1] (setting [9]), > 6.30 in experiment [2] (setting [6]), < 5.30 in experiment [3] (setting [10]) and > 6.30 in experiment [4] (setting [11]).
